Test results published in patent US20250188079A1, “INHIBITING CYCLIC AMP-RESPONSIVE ELEMENT-BINDING PROTEIN (CREB)” (Forma Therapeutics, Inc., priority 2019, published 2025).

Biological target: CBP (Homo sapiens (Human), UniProt Q92793)
Assay: HTRF biochemical assay for CBP activity (TR-FRET, bromodomain)
Format: binding
Conditions: geometric mean, 10-point 3-fold dilution 33 μM to 1.7 nM, read-out: BROMO IC50 TRF TB CBP (μM gmean)
In short: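 Compounds were tested as 10-point, 3-fold dilutions (33 μM to 1.7 nM final) against CBP protein and peptide ligand in pH 7.5 Hepes buffer with GSH, BGG, BSA and Triton X-100 at room temperature for varying times. The TR-FRET 520/490 ratio gave % inhibition versus no-enzyme and DMSO controls, and IC50 came from 4-parameter logistic fits.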

Sequence of CBP (Q92793 1085-1192): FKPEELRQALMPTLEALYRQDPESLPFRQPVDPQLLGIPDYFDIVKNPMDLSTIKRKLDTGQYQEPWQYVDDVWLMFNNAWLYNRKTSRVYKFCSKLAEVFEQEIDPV

COC(=O)N1CCc2ccc3c(nc(N4CCN(S(C)(=O)=O)CC4)n3[C@@H](C)Cc3ccccc3)c2C1 [Compound 80]
IC50: 0.001 to 0.01 µM

COC(=O)N1CCc2ccc3c(nc([C@H]4CC[C@H](C(=O)O)CC4)n3CCn3cc(Cl)cn3)c2C1 [Compound 236]
IC50: 0.01 to 0.1 µM

COC(=O)N1CCc2ccc3c(nc([C@H]4CCC[C@H](C(=O)O)C4)n3C[C@H]3CC[C@H](OC)CC3)c2C1 [Compound 255]
IC50: 0.01 to 0.1 µM

COC(=O)N1CCc2ccc3c(nc([C@H]4CC[C@H](C(=O)O)CC4)n3C(=O)N(C)c3ccccc3)c2C1 [Compound 292]
IC50: 0.1 to 1 µM

COC(=O)N1CCc2ccc3c(nc([C@H]4CC[C@H](C(=O)O)CC4)n3C[C@@H]3CCc4ccccc4C3)c2C1 [Compound 211]
IC50: 0.01 to 0.1 µM

COC(=O)N1CCc2ccc3c(nc(C4CCCCC4)n3C[C@H](C(=O)O)c3cc(F)c(C)cc3OC)c2C1 (single isomer, unassigned) [Compound 27]
IC50: 0.001 to 0.01 µM

COC(=O)N1CCc2ccc3c(nc([C@H]4C[C@@H](C(=O)O)C4)n3[C@@H](C)Cc3ccccc3C)c2C1 [Compound 130]
IC50: 0.001 to 0.01 µM

COC(=O)N1CCc2ccc3c(nc([C@H]4CC[C@H](S(=O)(=O)NC(C)=O)CC4)n3[C@H](C)Cc3ccccc3)c2C1 [Compound 316]
IC50: 0.1 to 1 µM

COC(=O)N1CCc2ccc3c(nc(C4CCCCC4)n3[C@@H](C)C[C@H]3CC[C@@H](C(=O)O)CC3)c2C1 [Compound 274]
IC50: 0.01 to 0.1 µM

COC(=O)N1CCc2ccc3c(nc(C4CCCCC4)n3C[C@H]3CC[C@H](C(=O)O)CC3)c2C1 [Compound 83]
IC50: 0.001 to 0.01 µM

COC(=O)N1CCc2ccc3c(nc([C@H]4CC[C@H](S(=O)(=O)NC(C)=O)CC4)n3[C@@H](C)Cc3ccccc3)c2C1 [Compound 96]
IC50: 0.001 to 0.01 µM

COC(=O)N1CCc2ccc3c(nc(-c4cccc(CC(=O)O)c4)n3[C@@H](C)Cc3cc(F)cc(F)c3)c2C1 [Compound 116]
IC50: 0.001 to 0.01 µM

COC(=O)N1CCc2ccc3c(nc([C@H]4CC[C@H](C(=O)O)CC4)n3[C@@H](C)Cc3cc(F)cc(F)c3)c2C1 (single isomer, unassigned) [Compound 3]
IC50: 0.001 to 0.01 µM

COC(=O)N1CCc2ccc3c(nc(C45CC(C(=O)O)(C4)C5)n3[C@@H](C)Cc3ccccc3)c2C1 [Compound 119]
IC50: 0.001 to 0.01 µM

COC(=O)N1CCc2ccc3c(nc(N4CCOCC4)n3[C@@H](C)Cc3cccc(C(=O)O)c3)c2C1 [Compound 182]
IC50: 0.01 to 0.1 µM

COC(=O)N1CCc2ccc3c(nc(C4CCCCC4)n3C[C@H](C(=O)NS(C)(=O)=O)c3ccccc3)c2C1 (single isomer, unassigned) [Compound 22]
IC50: 0.001 to 0.01 µM

COC(=O)N1CCc2ccc3c(nc(N4CCN(C(C)=O)CC4)n3[C@@H](C)Cc3cccnc3)c2C1 [Compound 234]
IC50: 0.01 to 0.1 µM

COC(=O)N1CCc2ccc3c(nc([C@H]4CC[C@H](C(=O)O)CC4)n3C[C@@H](OC)c3ccccc3)c2C1 [Compound 214]
IC50: 0.01 to 0.1 µM

COC(=O)N1CCc2ccc3c(nc([C@H]4CC[C@@H](S(=O)(=O)NC(C)=O)CC4)n3[C@H](C)Cc3ccccc3)c2C1 [Compound 162]
IC50: 0.001 to 0.01 µM

COC(=O)N1CCc2ccc3c(nc(-c4ccc(C(=O)O)c(OC)c4)n3[C@H](C)Cc3ccccc3)c2C1 [Compound 321]
IC50: 0.1 to 1 µM

COC[C@@H](Cc1ccccc1)n1c2ccc3c(c2nc1[C@H]1CC[C@H](C(=O)O)CC1)CN(C(=O)OC)CC3 [Compound 124]
IC50: 0.001 to 0.01 µM

COC(=O)N1CCc2ccc3c(nc([C@@H]4CCC[C@@H](C(=O)O)C4)n3C[C@H]3CC[C@@H](OC)CC3)c2C1 [Compound 259]
IC50: 0.01 to 0.1 µM

COC(=O)N1CCc2ccc3c(nc(C4CCN(C(=O)CO)CC4)n3[C@@H](C)Cc3ccccc3)c2C1 [Compound 106]
IC50: 0.001 to 0.01 µM

COC(=O)N1CCc2ccc3c(nc([C@H]4CC[C@H](C(=O)O)CC4)n3[C@@H](C)CC3CCCCC3)c2C1 [Compound 200]
IC50: 0.01 to 0.1 µM

COC(=O)N1Cc2c(ccc3c2nc(C2CCCCC2)n3CCc2ccccc2)C[C@H]1C [Compound 232]
IC50: 0.01 to 0.1 µM

COC(=O)N1CCc2ccc3c(nc([C@@H]4CCCOC4)n3C[C@H](C(=O)O)c3ccccc3)c2C1 [Compound 257]
IC50: 0.01 to 0.1 µM

COC(=O)N1CCc2ccc3c(nc(C4CCCCC4)n3C[C@@H](C(=O)O)C3CCCCC3)c2C1 [Compound 281]
IC50: 0.01 to 0.1 µM

COC(=O)N1CCc2ccc3c(nc([C@H]4CC[C@H](C(=O)O)CC4)n3[C@H](C)[C@@H](O)c3ccccc3)c2C1 [Compound 146]
IC50: 0.001 to 0.01 µM

COC(=O)N1CCc2ccc3c(nc(C4CCCCC4)n3C[C@@H]3CCCC[C@@H]3C(=O)O)c2C1 [Compound 195]
IC50: 0.01 to 0.1 µM

COC(=O)N1CCc2ccc3c(nc(C4CCCCC4)n3C[C@@H](C(=O)O)c3ccc(F)c(OC)c3)c2C1 [Compound 190]
IC50: 0.01 to 0.1 µM

COC(=O)N1CCc2ccc3c(nc(N4CCC(C)(C(=O)O)CC4)n3[C@@H](C)Cc3ccccc3)c2C1 [Compound 75]
IC50: 0.001 to 0.01 µM

COC(=O)N1CCc2ccc3c(nc(N4CCC(C(=O)O)CC4)n3[C@H](C)Cn3cc(C(F)(F)F)cn3)c2C1 [Compound 285]
IC50: 0.01 to 0.1 µM

COC(=O)N1CCc2ccc3c(nc(C4CCCCC4)n3CCc3cccc(C(=O)O)c3)c2C1 [Compound 105]
IC50: 0.001 to 0.01 µM

COC(=O)N1CCc2ccc3c(nc(C4CCCCC4)n3CC[C@H]3CC[C@@H](C(=O)O)CC3)c2C1 [Compound 87]
IC50: 0.001 to 0.01 µM

COC(=O)N1CCc2ccc3c(nc(-c4cccc([C@](C)(O)C(=O)O)c4)n3[C@H](C)Cc3ccccc3)c2C1 [Compound 140]
IC50: 0.001 to 0.01 µM

COC(=O)N1CCc2ccc3c(nc([C@H]4CC[C@H](C(=O)O)CC4)n3[C@H](C)Cc3c(C)cccc3C)c2C1 [Compound 318]
IC50: 0.1 to 1 µM

COC(=O)N1CCc2ccc3c(nc([C@H]4CC[C@H](C(=O)O)CC4)n3[C@H](C)CC3CCCCC3)c2C1 [Compound 114]
IC50: 0.001 to 0.01 µM

COC(=O)N1CCc2ccc3c(nc([C@H]4CC[C@](C)(C(=O)O)CC4)n3[C@@H](C)Cn3cc(Cl)cn3)c2C1 [Compound 231]
IC50: 0.01 to 0.1 µM

COC(=O)N1CCc2c([C@H]3CCOC3)cc3c(nc([C@H]4CC[C@H](C(=O)O)CC4)n3[C@H](C)Cc3ccccc3)c2C1 [Compound 201]
IC50: 0.01 to 0.1 µM

COC(=O)N1CCc2ccc3c(nc([C@@H]4CC[C@H](C(=O)O)C4)n3[C@H](C)Cc3ccccc3C)c2C1 [Compound 329]
IC50: 0.1 to 1 µM

COC(=O)N1CCc2ccc3c(nc([C@H]4CC[C@H](C(=O)O)CC4)n3[C@@H](C)C[C@@H]3CCCCO3)c2C1 [Compound 260]
IC50: 0.01 to 0.1 µM

COC(=O)N1CCc2ccc3c(nc(C4CCCCC4)n3CC[C@@H]3CCC[C@H](C(=O)O)C3)c2C1 [Compound 131]
IC50: 0.001 to 0.01 µM

COC(=O)N1CCc2ccc3c(nc(N4CCC(C(=O)O)CC4)n3[C@@H](C)Cc3ccc(F)c(F)c3)c2C1 (single isomer, unassigned) [Compound 23]
IC50: 0.001 to 0.01 µM

COC(=O)N1CCc2ccc3c(nc(N4CCC(C(=O)O)CC4)n3[C@@H](C)Cc3cc(F)cc(F)c3)c2C1 [Compound 45]
IC50: 0.001 to 0.01 µM

COC(=O)N1CCc2ccc3c(nc([C@H]4CC[C@H](C(=O)O)CC4)n3[C@H](C)C[C@H]3CC[C@@H](OC)CC3)c2C1 [Compound 68]
IC50: 0.001 to 0.01 µM

COC(=O)N1CCc2ccc3c(nc([C@H]4CC[C@H](C(=O)O)CC4)n3[C@@H](C)Cc3ccccc3)c2C1 [Compound 72]
IC50: 0.001 to 0.01 µM

COC(=O)N1CCc2ccc3c(nc([C@H]4CC[C@H](C(=O)O)CC4)n3[C@H](C)Cc3cccc(F)c3F)c2C1 [Compound 266]
IC50: 0.01 to 0.1 µM
